Measured values from article PMC10191551, “Safety, Tolerability, and Pharmacokinetics of Oral Ferric Maltol in Children With Iron Deficiency: Phase 1 Study” (JPGN Reports, 2021).

Columns and labels:
[1] = Phase 1 study: iron uptake (serum iron and TSAT) after oral ferric maltol; type: in vivo, children; conditions: 7.8, 16.6, 30 mg b.d.
Source text: Serum iron and TSAT provided measures of iron uptake.

[2] = Phase 1 study: safety and tolerability (adverse events, vital signs, ECG, laboratory tests, compliance) of oral ferric maltol; conditions: for Patients With an AE: Any AE: safety population
Source text: This phase 1, randomized, open-label, parallel-group pharmacokinetic study involved children seen as outpatients at 6 centers in the UK: Alder Hey Children’s NHS Foundation Trust; King’s College Hospital NHS Foundation Trust; University Hospitals of Leicester NHS Trust; Nottingham University Hospitals NHS Trust; Manchester University NHS Foundation Trust; and University College London Hospitals NHS Foundation Trust. […] Children aged 16 years or older and parents or guardians of children younger than 16 years provided written informed consent to participate before study initiation.
Children aged 10–17 years with confirmed iron deficiency at screening (defined as either ferritin <30 µg/L or ferritin <50 µg/L with transferrin saturation [TSAT] <20%) were eligible for inclusion in the study. Patients with or without anemia could be enrolled, provided hemoglobin was ≥8.5 g/dL at screening. Girls of childbearing potential had to agree to use adequate contraception during and until 4 weeks after the end of the study.
The study comprised a screening period followed by a 10-day randomized treatment period and a post-treatment safety follow-up. Children were randomized 1:1:1 (stratified by age [10–14 vs 15–17 years] and sex) to ferric maltol 7.8 mg, 16.6 mg, or 30 mg twice daily (b.d.) for 9 days and once in the morning of day 10. The first and last doses of ferric maltol were taken in the presence of the investigator. Children took each dose with a glass of water 1 hour before or 2 hours after a meal. Doses were based on daily elemental iron requirements for the broad range of body weights of participants likely to be enrolled, with the aim of finding a minimum effective dose in this age group. The 30 mg b.d. adult dosage was chosen as the highest exposure; dosages of 16.6 mg b.d. and 7.8 mg b.d. were chosen as approximately one-half and one-quarter of the adult dose, respectively, with the exact dose depending on the full fill of available capsule shell sizes.
The primary objectives were to assess iron uptake and ferric maltol pharmacokinetics. Serum iron and TSAT provided measures of iron uptake. In adults, dissociated maltol undergoes rapid glucuronidation and is cleared in urine as maltol glucuronide (36); therefore, in this study, plasma maltol glucuronide was measured to confirm the rate of clearance in children. The secondary objective was to assess the safety and tolerability of ferric maltol in terms of vital signs, AEs, concomitant medications, 12-lead electrocardiograms, and clinical laboratory blood tests.
Safety analyses were conducted in all patients who received at least 1 dose of the study medication and had at least 1 subsequent visit (the safety population). […] Clinically significant changes from baseline in vital signs, physical examination, and routine clinical laboratory abnormalities were also recorded.

Cc1occc(=O)c1[O-].Cc1occc(=O)c1[O-].Cc1occc(=O)c1[O-].[Fe+3] [Ferric maltol]
6 (46.2) n (%): Patients With an AE: Any TEAE ([2]; 16.6 mg b.d. (n = 13))
0 (0.0) n (%): Patients With an AE: Any SAE ([2]; 7.8 mg b.d. (n = 12)) | Patients With an AE: TEAE leading to study discontinuation ([2]; 7.8 mg b.d. (n = 12)) | Patients with a TEAE: Abdominal distension ([2]; 7.8 mg b.d. (n = 12)) | Patients with a TEAE: Abdominal pain ([2]; 7.8 mg b.d. (n = 12)) | Patients with a TEAE: Anal incontinence ([2]; 7.8 mg b.d. (n = 12)) | Patients with a TEAE: Constipation ([2]; 7.8 mg b.d. (n = 12)) | Patients with a TEAE: Dizziness ([2]; 7.8 mg b.d. (n = 12)) | Patients with a TEAE: Dyspepsia ([2]; 7.8 mg b.d. (n = 12)) | Patients with a TEAE: Papule ([2]; 7.8 mg b.d. (n = 12)) | Patients with a TEAE: Pyrexia ([2]; 7.8 mg b.d. (n = 12)) | Patients with a TEAE: Skin abrasion ([2]; 7.8 mg b.d. (n = 12)) | Patients with a TEAE: Tonsillitis ([2]; 7.8 mg b.d. (n = 12)) | TEAEs by system organ class: Injury, poisoning, and procedural complications ([2]; 7.8 mg b.d. (n = 12)) | Patients With an AE: Any SAE ([2]; 16.6 mg b.d. (n = 13)) | Patients with a TEAE: Abdominal distension ([2]; 16.6 mg b.d. (n = 13)) | Patients with a TEAE: Abdominal pain ([2]; 16.6 mg b.d. (n = 13)) | Patients with a TEAE: Anal incontinence ([2]; 16.6 mg b.d. (n = 13)) | Patients with a TEAE: Cellulitis ([2]; 16.6 mg b.d. (n = 13)) | Patients with a TEAE: Constipation ([2]; 16.6 mg b.d. (n = 13)) | Patients with a TEAE: Cough ([2]; 16.6 mg b.d. (n = 13)) | Patients with a TEAE: Diarrhea ([2]; 16.6 mg b.d. (n = 13)) | Patients with a TEAE: Dyspepsia ([2]; 16.6 mg b.d. (n = 13)) | Patients with a TEAE: Dyspnea ([2]; 16.6 mg b.d. (n = 13)) | Patients with a TEAE: Nausea ([2]; 16.6 mg b.d. (n = 13)) | Patients with a TEAE: Nevus hemorrhage ([2]; 16.6 mg b.d. (n = 13)) | Patients with a TEAE: Palpitations ([2]; 16.6 mg b.d. (n = 13)) | Patients with a TEAE: Papule ([2]; 16.6 mg b.d. (n = 13)) | Patients with a TEAE: Pyrexia ([2]; 16.6 mg b.d. (n = 13)) | Patients with a TEAE: Sneezing ([2]; 16.6 mg b.d. (n = 13)) | TEAEs by system organ class: Cardiac disorders ([2]; 16.6 mg b.d. (n = 13)) | TEAEs by system organ class: Neoplasms benign, malignant, and unspecified ([2]; 16.6 mg b.d. (n = 13)) | TEAEs by system organ class: Respiratory, thoracic, and mediastinal disorders ([2]; 16.6 mg b.d. (n = 13)) | TEAEs by system organ class: Skin and subcutaneous-tissue disorders ([2]; 16.6 mg b.d. (n = 13)) | Patients With an AE: Any SAE ([2]; 30 mg b.d. (n = 12)) | Patients With an AE: TEAE leading to study discontinuation ([2]; 30 mg b.d. (n = 12)) | Patients with a TEAE: Cellulitis ([2]; 30 mg b.d. (n = 12)) | Patients with a TEAE: Dyspnea ([2]; 30 mg b.d. (n = 12)) | Patients with a TEAE: Nevus hemorrhage ([2]; 30 mg b.d. (n = 12)) | Patients with a TEAE: Palpitations ([2]; 30 mg b.d. (n = 12)) | Patients with a TEAE: Skin abrasion ([2]; 30 mg b.d. (n = 12))
1 (8.3) n (%): Patients with a TEAE: Cellulitis ([2]; 7.8 mg b.d. (n = 12)) | Patients with a TEAE: Cough ([2]; 7.8 mg b.d. (n = 12)) | Patients with a TEAE: Dyspnea ([2]; 7.8 mg b.d. (n = 12)) | Patients with a TEAE: Fatigue ([2]; 7.8 mg b.d. (n = 12)) | Patients with a TEAE: Nausea ([2]; 7.8 mg b.d. (n = 12)) | Patients with a TEAE: Nevus hemorrhage ([2]; 7.8 mg b.d. (n = 12)) | Patients with a TEAE: Palpitations ([2]; 7.8 mg b.d. (n = 12)) | Patients with a TEAE: Sneezing ([2]; 7.8 mg b.d. (n = 12)) | Patients with a TEAE: Vomiting ([2]; 7.8 mg b.d. (n = 12)) | TEAEs by system organ class: Cardiac disorders ([2]; 7.8 mg b.d. (n = 12)) | TEAEs by system organ class: General disorders and administration-site conditions ([2]; 7.8 mg b.d. (n = 12)) | TEAEs by system organ class: Neoplasms benign, malignant, and unspecified ([2]; 7.8 mg b.d. (n = 12)) | TEAEs by system organ class: Nervous system disorders ([2]; 7.8 mg b.d. (n = 12)) | TEAEs by system organ class: Skin and subcutaneous-tissue disorders ([2]; 7.8 mg b.d. (n = 12)) | Patients with a TEAE: Abdominal distension ([2]; 30 mg b.d. (n = 12)) | Patients with a TEAE: Abdominal pain ([2]; 30 mg b.d. (n = 12)) | Patients with a TEAE: Anal incontinence ([2]; 30 mg b.d. (n = 12)) | Patients with a TEAE: Constipation ([2]; 30 mg b.d. (n = 12)) | Patients with a TEAE: Cough ([2]; 30 mg b.d. (n = 12)) | Patients with a TEAE: Diarrhea ([2]; 30 mg b.d. (n = 12)) | Patients with a TEAE: Dyspepsia ([2]; 30 mg b.d. (n = 12)) | Patients with a TEAE: Nausea ([2]; 30 mg b.d. (n = 12)) | Patients with a TEAE: Papule ([2]; 30 mg b.d. (n = 12)) | Patients with a TEAE: Pyrexia ([2]; 30 mg b.d. (n = 12))
4 (33.3) n (%): TEAEs by system organ class: Gastrointestinal disorders ([2]; 7.8 mg b.d. (n = 12))
increased iron uptake: Iron uptake (serum iron and TSAT) ([1]; days 1 and 10, ITT population)
not dose-dependent: Dose dependence of changes in serum iron concentrations [1]
3 (25.0) n (%): Patients With an AE: TEAE related to study drug ([2]; 7.8 mg b.d. (n = 12)) | TEAEs by system organ class: Respiratory, thoracic, and mediastinal disorders ([2]; 7.8 mg b.d. (n = 12))
5 (41.7) n (%): Patients With an AE: TEAE related to study drug ([2]; 30 mg b.d. (n = 12))
3 (23.1) n (%): TEAEs by system organ class: Nervous system disorders ([2]; 16.6 mg b.d. (n = 13))
7 (53.8) n (%): Patients With an AE: Any AE ([2]; 16.6 mg b.d. (n = 13))
1 (7.7) n (%): Patients With an AE: TEAE leading to study discontinuation ([2]; 16.6 mg b.d. (n = 13)) | Patients With an AE: TEAE related to study drug ([2]; 16.6 mg b.d. (n = 13)) | Patients with a TEAE: Dizziness ([2]; 16.6 mg b.d. (n = 13)) | Patients with a TEAE: Fatigue ([2]; 16.6 mg b.d. (n = 13)) | Patients with a TEAE: Skin abrasion ([2]; 16.6 mg b.d. (n = 13)) | Patients with a TEAE: Tonsillitis ([2]; 16.6 mg b.d. (n = 13)) | Patients with a TEAE: Vomiting ([2]; 16.6 mg b.d. (n = 13)) | TEAEs by system organ class: Injury, poisoning, and procedural complications ([2]; 16.6 mg b.d. (n = 13))
2 (15.4) n (%): TEAEs by system organ class: Gastrointestinal disorders ([2]; 16.6 mg b.d. (n = 13)) | TEAEs by system organ class: General disorders and administration-site conditions ([2]; 16.6 mg b.d. (n = 13))
2 (16.7) n (%): Patients with a TEAE: Diarrhea ([2]; 7.8 mg b.d. (n = 12)) | Patients with a TEAE: Dizziness ([2]; 30 mg b.d. (n = 12)) | Patients with a TEAE: Fatigue ([2]; 30 mg b.d. (n = 12))
7 (58.3) n (%): Patients With an AE: Any TEAE ([2]; 7.8 mg b.d. (n = 12)) | Patients With an AE: Any AE ([2]; 7.8 mg b.d. (n = 12)) | Patients With an AE: Any TEAE ([2]; 30 mg b.d. (n = 12))
1: Children who discontinued the study early because of a TEAE ([2]; 16.6 mg group, moderate tonsillitis, not related to study drug)
